Legend:
human leukemia cells = conditions: cited from earlier work
[1] = test system: DAOY medulloblastoma cells; test: DAOY medulloblastoma cells, MTT assay and light microscopy; assay type: cell-based; conditions: after 24 h treatment; each treatment had holo-Tf (20 μg/well)
Protocol: The compound ART-Phe-Sal was tested on DAOY medulloblastoma cells using the MTT assay. DAOY Medulloblastoma cells (5,000 cells/200 μL) was seeded on a 96 well plate and incubated for 24 h at 37° C. Cell culture medium was removed after 24 h and 150 μL of medium with treatment was added. Each experimental treatment had holo-Tf (20 μg/well). Treatment assay was viewed under light microscope after 24 h.
Treatment medium was removed after 48 h, and 100 μL of cell medium was added. MTT Reagent (10 μL, 12 mM) was added to each well. This solution was incubated at 37° C. for 4 h. Isopropanol (100 μL) was added to each well to lyse the cells, which were then incubated at 4° C. for 30 m. After incubation each well was plunged (3×200 μL) to ensure the cells were lysed. The incubated medium with MTT reagent was then centrifuged at 13,000 RPM in an eppendorph centrifuge for 3 minutes at room temperature. 100 μL of supernatant was read in a plate reader at λ=570 nm. FIG. 13 compares the effect of dihydroartemisinin (DHA) and ART-Phe-Sal on DAOY medulloblastoma cell line. The concentration of holo-Tf was 1.7 μM.

Row | Compound | therapeutic index (toxicity towards cancer cells versus normal cells) (human leukemia cells) | cell shrinkage under light microscope [1]
1 | C[C@@H]1CC[C@H]2[C@@H](C)C(=O)O[C@@H]3O[C@@]4(C)CC[C@@H]1[C@]32OO4 [Artemisinin] | approximately 100 | 
2 | holo-Tf: Human holotransferrin (Sigma Chemicals), iron carrying protein added to the cells |  | Moderate cell shrinkage

Reference: patent US7692030B2, “Conjugates of artemisinin-related endoperoxides and hydrazone derivatives for the treatment of cancer” (University of Washington, priority 2006, dated 2010)
